These results are taken from article PMC10695101 (Molecular and cellular endocrinology, 2023).

The assay deals with androgen receptor α (ARα). Put plainly: Gal4DBD-LBD/UAS luciferase transactivation assay in U-2 OS cells. Format: cell-based, Apteronotus albifrons.

Broadly, the EC50 is the concentration that produces a half-maximal response.

Take `C[C@]12CCC(=O)C[C@@H]1CC[C@@H]1[C@@H]2CC[C@]2(C)[C@@H](O)CC[C@@H]12` [5α-DHT]: the EC50 is […].

Take `C[C@]12CC(=O)[C@H]3[C@@H](CCC4=CC(=O)CC[C@@]43C)[C@@H]1CC[C@@H]2O` [11-KT]: it took 10 nM to reach a half-maximal effect (EC50).
